Laboratory results: ChEMBL document CHEMBL1136686 (Bioorg Med Chem Lett, 2003)

What was measured:
Glucocorticoid receptor [1] = target: T1, Glucocorticoid receptor (Homo sapiens, UniProt P04150); assay: Inhibitory activity against GR (glucocorticoid receptor)
T1 sequence (P04150 whole entry): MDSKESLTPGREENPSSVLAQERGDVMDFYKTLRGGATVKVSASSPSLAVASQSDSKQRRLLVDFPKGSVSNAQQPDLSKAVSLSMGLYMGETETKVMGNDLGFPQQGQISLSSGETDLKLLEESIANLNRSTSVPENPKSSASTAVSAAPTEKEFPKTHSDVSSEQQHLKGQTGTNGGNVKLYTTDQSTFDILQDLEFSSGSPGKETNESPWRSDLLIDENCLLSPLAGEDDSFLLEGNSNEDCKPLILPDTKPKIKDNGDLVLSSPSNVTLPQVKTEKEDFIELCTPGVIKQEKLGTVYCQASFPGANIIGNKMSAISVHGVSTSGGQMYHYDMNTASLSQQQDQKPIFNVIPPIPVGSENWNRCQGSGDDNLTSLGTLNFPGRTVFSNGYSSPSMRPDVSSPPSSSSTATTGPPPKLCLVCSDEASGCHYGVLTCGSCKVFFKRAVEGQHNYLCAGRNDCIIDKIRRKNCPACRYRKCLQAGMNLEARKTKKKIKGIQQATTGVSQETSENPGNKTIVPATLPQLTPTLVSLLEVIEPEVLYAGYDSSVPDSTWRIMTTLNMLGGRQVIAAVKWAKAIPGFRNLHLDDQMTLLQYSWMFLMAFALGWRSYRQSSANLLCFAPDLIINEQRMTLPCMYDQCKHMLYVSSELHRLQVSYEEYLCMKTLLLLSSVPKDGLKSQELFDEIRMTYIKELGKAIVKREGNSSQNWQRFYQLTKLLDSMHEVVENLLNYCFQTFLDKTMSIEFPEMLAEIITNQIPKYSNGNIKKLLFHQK

Progesterone receptor [2] = target: T2, Progesterone receptor (Homo sapiens, UniProt P06401); assay: Effective concentration against PR (progesterone receptor)
T2 sequence (P06401 whole entry): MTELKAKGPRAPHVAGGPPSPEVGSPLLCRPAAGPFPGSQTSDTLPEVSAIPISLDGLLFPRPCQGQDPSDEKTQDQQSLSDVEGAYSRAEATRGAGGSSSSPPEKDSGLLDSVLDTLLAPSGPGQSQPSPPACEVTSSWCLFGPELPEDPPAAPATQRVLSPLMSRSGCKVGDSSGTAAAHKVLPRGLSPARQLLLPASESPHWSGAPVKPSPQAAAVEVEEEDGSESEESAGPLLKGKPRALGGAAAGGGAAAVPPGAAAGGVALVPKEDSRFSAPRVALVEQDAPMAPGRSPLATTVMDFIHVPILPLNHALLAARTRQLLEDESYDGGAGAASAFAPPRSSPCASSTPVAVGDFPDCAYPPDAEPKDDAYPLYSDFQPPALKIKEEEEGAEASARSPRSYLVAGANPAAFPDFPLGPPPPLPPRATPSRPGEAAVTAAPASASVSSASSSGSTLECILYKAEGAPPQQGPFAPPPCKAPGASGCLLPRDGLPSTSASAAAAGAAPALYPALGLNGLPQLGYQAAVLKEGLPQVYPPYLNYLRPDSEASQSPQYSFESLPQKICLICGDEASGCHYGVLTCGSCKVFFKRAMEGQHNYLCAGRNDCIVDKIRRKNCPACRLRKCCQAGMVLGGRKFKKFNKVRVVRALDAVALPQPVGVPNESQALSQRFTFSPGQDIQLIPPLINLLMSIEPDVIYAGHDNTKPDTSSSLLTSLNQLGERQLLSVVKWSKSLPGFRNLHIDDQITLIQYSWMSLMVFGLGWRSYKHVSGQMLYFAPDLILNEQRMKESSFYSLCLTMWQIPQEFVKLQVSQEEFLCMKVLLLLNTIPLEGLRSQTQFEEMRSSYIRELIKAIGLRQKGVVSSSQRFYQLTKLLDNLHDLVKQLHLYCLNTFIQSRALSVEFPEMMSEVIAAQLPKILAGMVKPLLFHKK

Androgen receptor [3] = target: T3, Androgen receptor (Mus musculus, UniProt P19091); assay: Inhibitory activity against Androgen receptor
T3 sequence (P19091 whole entry): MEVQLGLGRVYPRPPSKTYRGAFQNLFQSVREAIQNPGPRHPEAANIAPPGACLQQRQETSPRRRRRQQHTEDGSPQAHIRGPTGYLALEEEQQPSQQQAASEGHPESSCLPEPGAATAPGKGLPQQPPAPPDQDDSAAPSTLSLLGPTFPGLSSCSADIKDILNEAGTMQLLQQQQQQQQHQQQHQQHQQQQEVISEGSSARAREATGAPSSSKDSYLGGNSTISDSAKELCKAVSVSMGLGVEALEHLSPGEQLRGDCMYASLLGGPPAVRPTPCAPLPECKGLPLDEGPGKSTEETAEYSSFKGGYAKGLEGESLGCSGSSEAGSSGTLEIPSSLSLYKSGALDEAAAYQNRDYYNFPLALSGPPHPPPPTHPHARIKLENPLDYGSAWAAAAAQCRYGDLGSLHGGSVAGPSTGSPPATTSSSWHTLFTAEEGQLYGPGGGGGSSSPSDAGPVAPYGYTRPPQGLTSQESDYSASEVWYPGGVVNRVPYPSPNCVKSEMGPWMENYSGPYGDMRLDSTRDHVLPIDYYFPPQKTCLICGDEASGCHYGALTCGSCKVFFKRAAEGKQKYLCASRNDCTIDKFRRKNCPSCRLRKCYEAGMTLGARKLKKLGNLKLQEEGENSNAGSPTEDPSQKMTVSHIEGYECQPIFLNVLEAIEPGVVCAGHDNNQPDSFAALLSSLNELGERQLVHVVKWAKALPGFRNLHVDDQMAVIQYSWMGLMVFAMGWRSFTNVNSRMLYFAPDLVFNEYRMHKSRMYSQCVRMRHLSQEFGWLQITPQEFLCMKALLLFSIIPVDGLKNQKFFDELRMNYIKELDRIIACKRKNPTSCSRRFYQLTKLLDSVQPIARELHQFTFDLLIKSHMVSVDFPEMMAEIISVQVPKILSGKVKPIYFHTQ

Androgen receptor [4] = target: T3, Androgen receptor; assay: Effective concentration against Androgen receptor
Progesterone receptor [5] = target: T2, Progesterone receptor; assay: Inhibition of [3H]P4 to progesterone receptor (PR) of human T47D breast carcinoma cells; type: cell-based
Progesterone receptor [6] = target: T2, Progesterone receptor; assay: Effective concentration on alkaline phosphatase activity in human T47D breast carcinoma cell line.; type: functional, cell-based
Glucocorticoid receptor [7] = target: T1, Glucocorticoid receptor; assay: Effective concentration against GR (glucocorticoid receptor)

IC50 (Glucocorticoid receptor [1]): 1320 nM
EC50 (Progesterone receptor [2]): 0.38 nM
IC50 (Androgen receptor [3]): 379 nM
EC50 (Androgen receptor [4]): > 10000 nM
IC50 (Progesterone receptor [5]): 3 nM
EC50 (Progesterone receptor [6]): 0.4 nM
EC50 (Glucocorticoid receptor [7]): > 10000 nM
Compound: CC1(C)OC(=S)Nc2ccc(-c3csc(C#N)c3)cc21
